Data taken from patent US20230357134A1, “AGENTS FOR USE IN THE TREATMENT OF AMYLOIDOSIS” (UCL BUSINESS LTD, priority 2020, published 2023).

Tests used:
[1] = target: T1, isolated wild type TTR (Homo sapiens, UniProt P02766); assay: Displacement of 125I-T4 from isolated wild type TTR in buffer; settings: concentration of ligand reducing binding of 125I-T4 by TTR by 50%; 125 nM TTR, pH 8.0, overnight 4° C.; mean of at least 3 replicates; read-out: D50 buffer
T1 construct: the non-covalently associated protomers, of mass 13,761, each contain 127 residues; His6 (N); TEV cleavage site (N); made in house; host or cells: E. coli BL21 (DE3)
Experimental: 3. Evaluation of Ligand Activity Based on Capacity to Displace ^125I-Thyroxine (T4) from TTR in Buffer/Human Plasma 3.1 Displacement of ^125I-T4 from Isolated Wild Type TR.
Competition of ligands with T4 for binding by TTR was assayed quantitatively by a previously described procedure (Kolstoe et al., 2010). Briefly, a solution of 125 nM TTR in 0.1 M Tris-HCl, 0.1 M NaCl and 0.001 M EDTA buffer, pH 8.0, was incubated overnight at 4° C. in the presence of 1.07 nM ^125I T4 (1,200 μCi/μg, 200 μCi/ml, Perkin Elmer) and increasing concentrations of inhibitor (0-5 μM) in 40 μl final volume. ^125I T4 bound by TTR was separated from unbound T4 by gel filtration chromatography using Micro Bio Spin 6 columns (Bio-Rad) previously equilibrated with the reaction buffer containing 1% w/v BSA. After counting with a Wizard2 gamma counter (Perkin-Elmer) for 60 s, percentage binding was plotted against the logarithm of the inhibitor concentration, and D50 (concentration of ligand reducing the binding of T4 by TTR by 50%) was determined using a four parameters dose-response curve with GraphPad Prism 5 (Table 1).

[2] = target: T2, TTR in whole human plasma (Homo sapiens, UniProt P02766); assay: Displacement of 125I-T4 from TTR in normal human plasma; format: binding; settings: wild type TTR, 30 min 37° C. with ligand, immunoprecipitation, mean of at least 3 replicates; for IC50: read-out: D50 plasma
T2 construct: TTR in whole plasma, from individuals homozygous for wild type TTR; from tissue; host or cells: whole human plasma
Experimental: 3.2 Displacement of ^125-T4 from TTR in Normal Human Plasma.
The displacement of ^125I-T4 from TTR in whole plasma, from individuals homozygous for wild type TTR, was studied by incubating plasma with each ligand at increasing concentrations for 30 min at 37° C., further incubation with […] followed by measurement of the radioactivity in the immunoprecipitate obtained with anti-TTR antibodies. […] Percentage binding was plotted against the logarithm of the inhibitor concentration, and D50 (concentration of ligand reducing the binding of T4 by TTR by 50%) was determined using a four parameter dose-response curve with GraphPad Prism 5 (Table 1).

[3] = target: T3, recombinant Val122Ile TTR (Homo sapiens, UniProt P02766, V142I); assay: Mechano-enzymatic fibrillogenesis, TTR aggregation by turbidity at 400 nm; format: biochemical; settings: equimolar ligand, Val122Ile TTR 9 μM, trypsin, 96 h, 100 % = protein without ligand, mean (SD)
T3 construct: the non-covalently associated protomers, of mass 13,761, each contain 127 residues; His6 (N); TEV cleavage site (N); made in house; host or cells: E. coli BL21 (DE3)
Experimental: (§1) Briefly, fibrillogenesis of recombinant Val122Ile TTR at 0.5 mg/ml (9 μM) in PBS, pH 7.4 was carried out in glass vials stirred at 1,400 rpm (IKA magnetic stirrer) and 37° C. in the presence and in the absence of trypsin (5 ng/μl). […] Each ligand was tested at 4 different concentrations (4.5, 9, 18, 36 μM respectively) corresponding to the following drug/TTR molar ratios of 0.5:1, 1:1, 2:1 and 4:1. Several dilutions of the drug stock solutions were made in order to add the same volume of DMSO to each sample. Control samples without drug were added with the same volume of DMSO only. To allow complete binding of ligand by TTR each sample was incubated for 30 min at 37° C. before addition of trypsin. Spectrophotometric turbidity at 400 nm was used to monitor fibril formation over time until it reached a plateau at 96 h. Aggregation of TTR in the presence of equimolar ligand concentrations was quantified as spectrophotometric turbidity at 400 nm as a proportion of 100% for aggregation of the protein in the absence of ligands (Table 2).

[4] = target: T3, recombinant Val122Ile TTR; assay: Mechano-enzymatic fibrillogenesis, TTR amyloid by ThT emission fluorescence; format: biochemical; settings: equimolar ligand, 96 h pellets, normalized to 100 % without ligand, mean (SD)
Experimental: as §1
At the end of the 96 h aggregation, pellets were harvested from each protein sample by 20 min centrifugation at 11,600 g, thoroughly rinsed with PBS to remove non-bound ligand, resuspended with 100 μl PBS, pH 7.4 containing 10 μM ThT in Costar 96-well black-wall plates. Bottom fluorescence values (excitation 440 nm, emission 480 nm) were recorded using a BMG LABTECH FLUostar Omega plate reader. Each value was normalized to the ThT signal of the TTR sample without ligand (Table 2)

Compound | IC50 [1] | IC50 [2] | % Aggregation (Turbidity method) [3] | % Aggregation (Fluorescence method) [4] | % Aggregation (Turbidity method) ([3]; listed as T-663 (B3)) | % Aggregation (Fluorescence method) ([4]; listed as T-663 (B3)) | D50 plasma [2]
O=C(O)CCc1cc(Cl)c(OCC[C@@H](O)[C@H](O)CCOc2ccc(Nc3ccccc3C(=O)O)cc2Cl)c(Cl)c1 [Compound B20, 2-[4-[(3R,4R)-6-[4-(2-carboxyethyl)-2,6-dichloro-phenoxy]-3,4-dihydroxy-hexoxy]-3-chloro-anilino]benzoic acid] | 70 nM | 7000 nM | 11.6 (8.30) % | 8.54 (6.10) % |  |  | 
O=C(O)CCc1ccc(OCCCOCCCOc2ccc(-c3nc4ccc(C(=O)O)cc4o3)cc2Cl)c(Cl)c1 [Compound B18, 2-[4-[3-[3-[4-(2-carboxyethyl)-2-chloro-phenoxy]propoxy]propoxy]-3-chloro-phenyl]-1,3-benzoxazole-6-carboxylic acid] | 210 nM | > 100000 nM | 3.31 (0.68) % | 2.45 (1.39) % |  |  | 
O=C(O)CCc1ccc(OCC[C@@H](O)[C@H](O)CCOc2ccc(Nc3ccccc3C(=O)O)cc2Cl)c(Cl)c1 [Compound B22, 2-[4-[(3R,4R)-6-[4-(2-carboxyethyl)-2-chloro-phenoxy]-3,4-dihydroxy-hexoxy]-3-chloro-anilino]benzoic acid] | 70 nM | 6400 nM | 6.43 (2.12) % | 15.5 (3.25) % |  |  | 
O=C(O)CCc1cc(Cl)c(OCC[C@@H](O)[C@H](O)CCOc2ccc(-c3nc4ccc(C(=O)O)cc4o3)cc2Cl)c(Cl)c1 [Compound B17, 2-[4-[(3R,4R)-6-[4-(2-carboxyethyl)-2,6-dichloro-phenoxy]-3,4-dihydroxy-hexoxy]-3-chloro-phenyl]-1,3-benzoxazole-6-carboxylic acid] | 100 nM | 17300 nM | 4.52 (1.08) % | 3.86 (2.29) % |  |  | 
O=C(O)CCc1cc(Cl)c(OCC[C@@H](O)[C@H](O)CCOc2c(Cl)cc(Nc3ccccc3C(=O)O)cc2Cl)c(Cl)c1 [Compound B4A, 2-[4-[(3R,4R)-6-[4-(2-carboxyethyl)-2,6-dichloro-phenoxy]-3,4-dihydroxy-hexoxy]-3,5-dichloro-anilino]benzoicacid] | 66 nM | 2300 nM | 4.99 (0.46) % | 3.30 (1.19) % |  |  | 
O=C(O)CCc1cc(Cl)c(OCC[C@@H](O)[C@H](O)CCOc2c(Cl)cc(Nc3ncccc3C(=O)O)cc2Cl)c(Cl)c1 [Compound B3, 2-[4-[(3R,4R)-6-[4-(2-carboxyethyl)-2,6-dichloro-phenoxy]-3,4-dihydroxy-hexoxy]-3,5-dichloro-anilino]pyridine-3-carboxylic acid] | 70 nM | 1700 nM |  |  | 5.11 (1.58) % | 4.49 (2.08) % | 
Cc1n[nH]c(COCCCOCCCOc2c(Cl)cc(CCC(=O)O)cc2Cl)c1CCCOc1cc(C(=O)O)ccc1F [Compound B9, 3-[3-[5-[3-[3-[4-(2-carboxyethyl)-2,6-dichloro-phenoxy]propoxy]propoxymethyl]-3-methyl-1H-pyrazol-4-yl]propoxy]-4-fluorobenzoic acid] | 1350 nM |  | 17.1 (0.66) % | 9.34 (4.36) % |  |  | no binding
O=C(O)CCc1ccc(OCCCOCCCOc2c(Cl)cc(-c3nc4ccc(C(=O)O)cc4o3)cc2Cl)c(Cl)c1 [Compound B19, 2-[4-[3-[3-[4-(2-carboxyethyl)-2-chloro-phenoxy]propoxy]propoxy]-3,5-dichloro-phenyl]-1,3-benzoxazole-6-carboxylic acid] | 160 nM | > 100000 nM | 3.99 (0.928) % | 7.27 (1.17) % |  |  | 
O=C(O)CCc1cc(Cl)c(OCCOCCCCOc2c(Cl)cc(Nc3ccccc3C(=O)O)cc2Cl)c(Cl)c1 [Compound B2, 2-[4-[4-[2-[4-(2-carboxyethyl)-2,6-dichloro-phenoxy]ethoxy]butoxy]-3,5-dichloro-anilino]benzoic acid] | 100 nM | 2590 nM | 5.25 (1.68) % | 4.36 (1.51) % |  |  | 
